Measured values taken from ChEMBL document CHEMBL4507282, “Data for DCP probe BI-1950” (2021).

Tests used:
[1] = test system: Tyrosine-protein kinase ABL1 (Homo sapiens), P00519 [Y253F]; conditions: Compound concentration 1000.0 nM
[2] = biological target: RAC-alpha serine/threonine-protein kinase (Homo sapiens) (UniProt P31749); conditions: Compound concentration 1000.0 nM
[3] = biological target: RAC-beta serine/threonine-protein kinase (Homo sapiens) (UniProt P31751); conditions: Compound concentration 1000.0 nM
Sequence of RAC-beta serine/threonine-protein kinase (Homo sapiens) (P31751 whole entry): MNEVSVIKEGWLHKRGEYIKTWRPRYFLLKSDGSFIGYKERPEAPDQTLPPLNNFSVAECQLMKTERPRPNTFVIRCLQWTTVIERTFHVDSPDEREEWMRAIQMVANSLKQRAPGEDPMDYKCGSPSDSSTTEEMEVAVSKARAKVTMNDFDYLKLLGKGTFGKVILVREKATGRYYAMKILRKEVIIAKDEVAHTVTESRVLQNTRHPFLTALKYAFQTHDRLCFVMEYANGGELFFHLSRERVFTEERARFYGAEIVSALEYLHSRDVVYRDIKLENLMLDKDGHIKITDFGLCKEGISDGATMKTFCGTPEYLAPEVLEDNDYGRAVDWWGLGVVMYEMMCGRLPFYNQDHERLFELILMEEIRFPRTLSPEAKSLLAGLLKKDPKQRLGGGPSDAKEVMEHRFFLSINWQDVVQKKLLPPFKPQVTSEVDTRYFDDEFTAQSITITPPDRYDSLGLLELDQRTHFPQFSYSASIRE

[4] = biological target: RAC-gamma serine/threonine-protein kinase (Homo sapiens) (UniProt Q9Y243); conditions: Compound concentration 1000.0 nM
[5] = test system: ALK tyrosine kinase receptor (Homo sapiens), Q9UM73 [C1156Y]; conditions: Compound concentration 1000.0 nM
[6] = biological target: 5'-AMP-activated protein kinase catalytic subunit alpha-2 (Homo sapiens) (UniProt P54646); conditions: Compound concentration 1000.0 nM
[7] = biological target: BMP-2-inducible protein kinase (Homo sapiens) (UniProt Q9NSY1); conditions: Compound concentration 1000.0 nM
[8] = biological target: Protein-tyrosine kinase 6 (Homo sapiens) (UniProt Q13882); conditions: Compound concentration 1000.0 nM
[9] = biological target: Calcium/calmodulin-dependent protein kinase type 1B (Homo sapiens) (UniProt Q6P2M8); conditions: Compound concentration 1000.0 nM
[10] = biological target: Calcium/calmodulin-dependent protein kinase type 1G (Homo sapiens) (UniProt Q96NX5); conditions: Compound concentration 1000.0 nM
[11] = biological target: Calcium/calmodulin-dependent protein kinase type II subunit alpha (Homo sapiens) (UniProt Q9UQM7); conditions: Compound concentration 1000.0 nM
[12] = biological target: Calcium/calmodulin-dependent protein kinase type IV (Homo sapiens) (UniProt Q16566); conditions: Compound concentration 1000.0 nM
Sequence of Calcium/calmodulin-dependent protein kinase type IV (Homo sapiens) (Q16566 whole entry): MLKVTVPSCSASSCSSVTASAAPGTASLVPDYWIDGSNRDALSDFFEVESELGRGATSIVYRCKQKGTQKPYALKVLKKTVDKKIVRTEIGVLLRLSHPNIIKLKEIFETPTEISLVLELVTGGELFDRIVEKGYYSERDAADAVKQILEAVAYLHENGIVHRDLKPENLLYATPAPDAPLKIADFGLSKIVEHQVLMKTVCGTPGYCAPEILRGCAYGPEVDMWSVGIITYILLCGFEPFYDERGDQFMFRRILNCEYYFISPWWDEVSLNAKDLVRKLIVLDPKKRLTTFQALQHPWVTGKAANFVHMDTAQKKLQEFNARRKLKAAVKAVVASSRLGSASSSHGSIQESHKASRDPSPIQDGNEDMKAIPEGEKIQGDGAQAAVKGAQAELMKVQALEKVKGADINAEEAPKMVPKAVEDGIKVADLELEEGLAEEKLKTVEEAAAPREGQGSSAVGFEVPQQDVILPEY

[13] = biological target: Serine/threonine-protein kinase MRCK gamma (Homo sapiens) (UniProt Q6DT37); conditions: Compound concentration 1000.0 nM
[14] = test system: Epidermal growth factor receptor (Homo sapiens), P00533 [G719S]; conditions: Compound concentration 1000.0 nM
[15] = biological target: Ephrin type-A receptor 5 (Homo sapiens) (UniProt P54756); conditions: Compound concentration 1000.0 nM
Sequence of Ephrin type-A receptor 5 (Homo sapiens) (P54756 whole entry): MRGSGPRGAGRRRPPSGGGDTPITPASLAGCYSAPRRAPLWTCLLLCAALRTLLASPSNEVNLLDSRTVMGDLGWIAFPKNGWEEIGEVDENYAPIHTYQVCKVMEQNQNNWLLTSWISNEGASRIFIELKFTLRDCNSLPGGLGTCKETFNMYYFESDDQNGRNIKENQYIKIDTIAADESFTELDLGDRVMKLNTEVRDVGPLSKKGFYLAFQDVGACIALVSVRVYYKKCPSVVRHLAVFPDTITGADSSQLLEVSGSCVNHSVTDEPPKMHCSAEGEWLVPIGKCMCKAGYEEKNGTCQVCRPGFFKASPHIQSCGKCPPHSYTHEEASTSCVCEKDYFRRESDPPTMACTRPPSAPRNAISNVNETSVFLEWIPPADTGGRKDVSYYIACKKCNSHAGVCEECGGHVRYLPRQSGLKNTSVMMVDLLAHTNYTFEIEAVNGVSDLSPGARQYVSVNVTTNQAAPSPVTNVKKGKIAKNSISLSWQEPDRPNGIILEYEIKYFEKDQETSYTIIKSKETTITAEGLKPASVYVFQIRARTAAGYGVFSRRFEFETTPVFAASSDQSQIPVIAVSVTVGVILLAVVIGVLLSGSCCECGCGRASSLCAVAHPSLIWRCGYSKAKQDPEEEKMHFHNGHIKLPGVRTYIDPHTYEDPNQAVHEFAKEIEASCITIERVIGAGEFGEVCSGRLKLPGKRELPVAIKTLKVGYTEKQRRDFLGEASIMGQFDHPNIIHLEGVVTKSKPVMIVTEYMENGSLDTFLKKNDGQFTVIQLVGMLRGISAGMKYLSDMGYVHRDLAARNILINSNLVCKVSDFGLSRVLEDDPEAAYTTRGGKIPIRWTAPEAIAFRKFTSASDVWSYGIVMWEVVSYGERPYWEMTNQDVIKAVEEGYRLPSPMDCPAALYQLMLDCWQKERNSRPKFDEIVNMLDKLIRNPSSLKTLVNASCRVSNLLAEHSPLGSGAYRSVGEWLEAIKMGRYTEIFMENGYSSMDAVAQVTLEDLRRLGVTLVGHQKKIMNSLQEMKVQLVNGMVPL

[16] = biological target: Ephrin type-A receptor 8 (Homo sapiens) (UniProt P29322); conditions: Compound concentration 1000.0 nM
[17] = biological target: Mitogen-activated protein kinase 15 (Homo sapiens) (UniProt Q8TD08); conditions: Compound concentration 1000.0 nM
[18] = test system: Receptor-type tyrosine-protein kinase FLT3 (Homo sapiens), P36888 [UNDEFINED MUTATION]; conditions: Compound concentration 1000.0 nM
[19] = biological target: Receptor-type tyrosine-protein kinase FLT3 (Homo sapiens) (UniProt P36888); conditions: Compound concentration 1000.0 nM
[20] = biological target: Insulin receptor (Homo sapiens) (UniProt P06213); conditions: Compound concentration 1000.0 nM
[21] = biological target: Mitogen-activated protein kinase 10 (Homo sapiens) (UniProt P53779); conditions: Compound concentration 1000.0 nM
[22] = test system: Mast/stem cell growth factor receptor Kit (Homo sapiens), P10721 [V559D,T670I]; conditions: Compound concentration 1000.0 nM
[23] = biological target: Serine/threonine-protein kinase MARK2 (Homo sapiens) (UniProt Q7KZI7); conditions: Compound concentration 1000.0 nM
[24] = biological target: Dual specificity mitogen-activated protein kinase kinase 3 (Homo sapiens) (UniProt P46734); conditions: Compound concentration 1000.0 nM
[25] = biological target: Dual specificity mitogen-activated protein kinase kinase 4 (Homo sapiens) (UniProt P45985); conditions: Compound concentration 1000.0 nM
[26] = biological target: Serine/threonine-protein kinase MRCK alpha (Homo sapiens) (UniProt Q5VT25); conditions: Compound concentration 1000.0 nM
[27] = biological target: Myosin-IIIb (Homo sapiens) (UniProt Q8WXR4); conditions: Compound concentration 1000.0 nM
Sequence of Myosin-IIIb (Homo sapiens) (Q8WXR4 whole entry): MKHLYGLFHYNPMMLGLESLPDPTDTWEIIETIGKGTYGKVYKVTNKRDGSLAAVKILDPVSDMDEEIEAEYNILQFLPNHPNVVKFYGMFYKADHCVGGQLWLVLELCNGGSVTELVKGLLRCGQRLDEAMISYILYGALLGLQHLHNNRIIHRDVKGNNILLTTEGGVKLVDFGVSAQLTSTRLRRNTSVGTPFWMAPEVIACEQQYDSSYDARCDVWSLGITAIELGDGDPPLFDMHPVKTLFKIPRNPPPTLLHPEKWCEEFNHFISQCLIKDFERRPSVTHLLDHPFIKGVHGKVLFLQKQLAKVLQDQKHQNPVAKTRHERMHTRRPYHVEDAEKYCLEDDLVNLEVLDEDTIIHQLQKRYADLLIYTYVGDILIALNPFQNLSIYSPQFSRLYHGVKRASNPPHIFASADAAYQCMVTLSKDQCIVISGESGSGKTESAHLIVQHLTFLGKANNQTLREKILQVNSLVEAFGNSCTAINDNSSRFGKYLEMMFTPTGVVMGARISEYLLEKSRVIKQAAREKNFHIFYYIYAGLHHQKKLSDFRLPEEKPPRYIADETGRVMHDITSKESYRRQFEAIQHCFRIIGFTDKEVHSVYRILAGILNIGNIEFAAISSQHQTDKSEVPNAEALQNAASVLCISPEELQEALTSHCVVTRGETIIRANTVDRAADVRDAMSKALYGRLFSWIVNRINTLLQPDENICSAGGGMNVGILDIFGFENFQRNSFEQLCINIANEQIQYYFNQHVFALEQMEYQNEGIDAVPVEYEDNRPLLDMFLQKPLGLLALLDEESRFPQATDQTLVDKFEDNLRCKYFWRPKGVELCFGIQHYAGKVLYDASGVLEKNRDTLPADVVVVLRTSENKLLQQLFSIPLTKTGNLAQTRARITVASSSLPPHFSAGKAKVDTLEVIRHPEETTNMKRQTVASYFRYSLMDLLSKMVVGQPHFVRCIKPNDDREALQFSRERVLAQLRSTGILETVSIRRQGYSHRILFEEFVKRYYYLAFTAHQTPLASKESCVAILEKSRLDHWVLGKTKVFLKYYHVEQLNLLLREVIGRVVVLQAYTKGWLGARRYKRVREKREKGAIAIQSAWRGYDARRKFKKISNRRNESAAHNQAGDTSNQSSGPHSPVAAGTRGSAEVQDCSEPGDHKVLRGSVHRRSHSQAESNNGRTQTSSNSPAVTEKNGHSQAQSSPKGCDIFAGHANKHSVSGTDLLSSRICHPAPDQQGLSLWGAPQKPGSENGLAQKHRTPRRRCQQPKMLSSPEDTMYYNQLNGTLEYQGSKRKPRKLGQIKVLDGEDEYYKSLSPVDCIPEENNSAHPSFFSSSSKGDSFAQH

[28] = biological target: Serine/threonine-protein kinase NIM1 (Homo sapiens) (UniProt Q8IY84); conditions: Compound concentration 1000.0 nM
[29] = biological target: Serine/threonine-protein kinase PAK 4 (Homo sapiens) (UniProt O96013); conditions: Compound concentration 1000.0 nM
[30] = test system: Phosphatidylinositol 4,5-bisphosphate 3-kinase catalytic subunit alpha isoform (Homo sapiens), P42336 [H1047L]; conditions: Compound concentration 1000.0 nM
[31] = test system: Phosphatidylinositol 4,5-bisphosphate 3-kinase catalytic subunit alpha isoform (Homo sapiens), P42336 [I800L]; conditions: Compound concentration 1000.0 nM
[32] = biological target: Serine/threonine-protein kinase pim-2 (Homo sapiens) (UniProt Q9P1W9); conditions: Compound concentration 1000.0 nM
Sequence of Serine/threonine-protein kinase pim-2 (Homo sapiens) (Q9P1W9 whole entry, looked up): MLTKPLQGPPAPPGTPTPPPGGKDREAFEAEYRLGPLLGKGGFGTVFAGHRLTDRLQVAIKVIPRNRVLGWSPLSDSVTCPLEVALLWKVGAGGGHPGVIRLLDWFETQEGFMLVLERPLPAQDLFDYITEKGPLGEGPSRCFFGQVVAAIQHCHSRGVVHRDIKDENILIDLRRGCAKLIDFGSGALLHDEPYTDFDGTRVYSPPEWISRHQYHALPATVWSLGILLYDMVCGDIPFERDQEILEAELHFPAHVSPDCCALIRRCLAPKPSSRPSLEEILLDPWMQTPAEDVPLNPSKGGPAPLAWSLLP

[33] = biological target: cAMP-dependent protein kinase catalytic subunit beta (Homo sapiens) (UniProt P22694); conditions: Compound concentration 1000.0 nM
[34] = biological target: Serine/threonine-protein kinase D3 (Homo sapiens) (UniProt O94806); conditions: Compound concentration 1000.0 nM
[35] = biological target: Rho-associated protein kinase 1 (Homo sapiens) (UniProt Q13464); conditions: Compound concentration 1000.0 nM
[36] = biological target: Ribosomal protein S6 kinase alpha-6 (Homo sapiens) (UniProt Q9UK32); conditions: Compound concentration 1000.0 nM
Sequence of Ribosomal protein S6 kinase alpha-6 (Homo sapiens) (Q9UK32 whole entry): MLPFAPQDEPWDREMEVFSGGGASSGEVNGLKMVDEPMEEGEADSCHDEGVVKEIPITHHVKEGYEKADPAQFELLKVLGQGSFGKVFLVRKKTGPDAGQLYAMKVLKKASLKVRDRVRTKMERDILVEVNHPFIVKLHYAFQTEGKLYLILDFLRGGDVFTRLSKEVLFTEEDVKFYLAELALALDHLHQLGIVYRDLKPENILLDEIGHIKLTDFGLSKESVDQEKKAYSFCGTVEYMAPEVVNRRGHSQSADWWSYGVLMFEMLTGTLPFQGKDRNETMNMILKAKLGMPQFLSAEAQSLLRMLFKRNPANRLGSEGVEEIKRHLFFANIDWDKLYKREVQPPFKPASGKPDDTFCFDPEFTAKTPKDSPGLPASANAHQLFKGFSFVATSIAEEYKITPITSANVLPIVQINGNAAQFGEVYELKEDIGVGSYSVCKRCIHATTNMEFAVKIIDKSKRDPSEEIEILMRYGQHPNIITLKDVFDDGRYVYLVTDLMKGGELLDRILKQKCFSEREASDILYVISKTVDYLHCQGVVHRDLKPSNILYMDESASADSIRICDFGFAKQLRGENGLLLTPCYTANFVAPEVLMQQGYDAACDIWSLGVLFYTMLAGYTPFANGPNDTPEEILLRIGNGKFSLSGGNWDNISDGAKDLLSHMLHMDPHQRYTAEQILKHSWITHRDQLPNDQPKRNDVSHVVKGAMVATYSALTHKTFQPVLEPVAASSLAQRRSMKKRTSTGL

[37] = biological target: Serine/threonine-protein kinase Sgk1 (Homo sapiens) (UniProt O00141); conditions: Compound concentration 1000.0 nM
[38] = biological target: Serine/threonine-protein kinase Sgk3 (Homo sapiens) (UniProt Q96BR1); conditions: Compound concentration 1000.0 nM
[39] = biological target: Angiopoietin-1 receptor (Homo sapiens) (UniProt Q02763); conditions: Compound concentration 1000.0 nM
[40] = biological target: High affinity nerve growth factor receptor (Homo sapiens) (UniProt P04629); conditions: Compound concentration 1000.0 nM
[41] = biological target: Phosphatidylinositol 3-kinase catalytic subunit type 3 (Homo sapiens) (UniProt Q8NEB9); conditions: Compound concentration 1000.0 nM
[42] = biological target: Serine/threonine-protein kinase 32A (Homo sapiens) (UniProt Q8WU08); conditions: Compound concentration 1000.0 nM
Sequence of Serine/threonine-protein kinase 32A (Homo sapiens) (Q8WU08 whole entry): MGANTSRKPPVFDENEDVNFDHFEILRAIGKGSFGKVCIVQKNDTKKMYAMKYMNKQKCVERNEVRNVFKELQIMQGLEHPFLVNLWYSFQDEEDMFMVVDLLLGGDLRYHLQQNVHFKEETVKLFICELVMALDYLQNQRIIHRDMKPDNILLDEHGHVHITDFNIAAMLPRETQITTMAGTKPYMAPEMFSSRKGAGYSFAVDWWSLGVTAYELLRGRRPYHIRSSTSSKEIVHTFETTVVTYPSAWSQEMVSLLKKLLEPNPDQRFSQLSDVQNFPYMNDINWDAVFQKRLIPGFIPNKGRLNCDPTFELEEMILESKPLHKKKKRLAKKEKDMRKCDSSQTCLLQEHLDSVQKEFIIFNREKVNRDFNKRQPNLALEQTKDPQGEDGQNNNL

[43] = biological target: 5-hydroxytryptamine receptor 2A (Homo sapiens) (UniProt P28223); conditions: Compound concentration 10.0 uM
[44] = biological target: D(2) dopamine receptor (Homo sapiens) (UniProt P14416); conditions: Compound concentration 10.0 uM
[45] = biological target: Histamine H1 receptor (Homo sapiens) (UniProt P35367); conditions: Compound concentration 10.0 uM

C[C@H](NC(=O)c1cnc2n1[C@](C)(Cc1ccc(C#N)cc1)C(=O)N2c1cc(Cl)c(F)c(Cl)c1)C(=O)NC1(c2ccccn2)CC1 [BI 1950]
inactive: residual activity [1] 100% | residual activity [2] 100% | residual activity [3] 100% | residual activity [4] 60% | residual activity [5] 100% | residual activity [6] 100% | residual activity [7] 100% | residual activity [8] 92% | residual activity [9] 83% | residual activity [10] 100% | residual activity [11] 96% | residual activity [12] 100% | residual activity [13] 100% | residual activity [14] 100% | residual activity [15] 100% | residual activity [16] 100% | residual activity [17] 100% | residual activity [18] 100% | residual activity [19] 100% | residual activity [20] 100% | residual activity [21] 91% | residual activity [22] 100% | residual activity [23] 100% | residual activity [24] 80% | residual activity [25] 100% | residual activity [26] 100% | residual activity [27] 100% | residual activity [28] 100% | residual activity [29] 100% | residual activity [30] 81% | residual activity [31] 100% | residual activity [32] 100% | residual activity [33] 75% | residual activity [34] 100% | residual activity [35] 100% | residual activity [36] 91% | residual activity [37] 100% | residual activity [38] 100% | residual activity [39] 91% | residual activity [40] 98% | residual activity [41] 100% | residual activity [42] 83% | inhibition [43] 9.3% | inhibition [44] 7.62% | inhibition [45] 3.2%

C[C@@]1(Cc2ccc(C#N)cc2)C(=O)N(c2cc(Cl)cc(Cl)c2)c2ncc(C(=O)NC3(c4nc(C5CCC5)no4)CC3)n21 [BI 9446]
inactive: residual activity [1] 95% | residual activity [2] 100% | residual activity [3] 100% | residual activity [4] 100% | residual activity [5] 100% | residual activity [6] 100% | residual activity [7] 100% | residual activity [8] 100% | residual activity [9] 65% | residual activity [10] 100% | residual activity [11] 89% | residual activity [12] 100% | residual activity [13] 100% | residual activity [14] 99% | residual activity [15] 100% | residual activity [16] 100% | residual activity [17] 100% | residual activity [18] 100% | residual activity [19] 100% | residual activity [20] 89% | residual activity [21] 100% | residual activity [22] 100% | residual activity [23] 85% | residual activity [24] 89% | residual activity [25] 100% | residual activity [26] 100% | residual activity [27] 99% | residual activity [28] 100% | residual activity [29] 98% | residual activity [30] 96% | residual activity [31] 88% | residual activity [32] 98% | residual activity [33] 100% | residual activity [34] 87% | residual activity [35] 100% | residual activity [36] 100% | residual activity [37] 100% | residual activity [38] 100% | residual activity [39] 92% | residual activity [40] 100% | residual activity [41] 100% | residual activity [42] 100% | inhibition [43] 31.9% | inhibition [44] 16.4% | inhibition [45] 10.3%
